Measured values as given in US6737434B2, “Imidazole derivatives or their salts” (SSP Co., Ltd., priority 2000, dated 2004).

System: human G-CSF-dependent cell strain (BAF/hGCSFR)
Assay: Induction of cell growth of a human G-CSF-dependent cell strain (WST-1 absorbance), expressed as human-G-CSF equivalent concentration
Assay type: cell-based
Settings: 48 hours incubation, mean±standard error, n=5
Protocol: Cloning of human G-CSF receptor gene was performed through RT-PCR by using primers created on the basis of the human G-CSF receptor gene using a human spleen cDNA library. The thus cloned human G-CSF receptor gene inserted to a multicloning site of an expression vector. Subsequently, the gene-inserted expression vector was transformed into E. coli for multiplication, and the expression vector was extracted. An aliquot of the expression vector (20 μg) was added to host cells (BAF/B03) prepared to 5×10^7 cells/800 μL K-PBS (30.8 mM NaCl, 120.7 mM KCl, 8.1 mM Na2HPO4, 1.46 mM KH2PO4, 5 mM MgCl2), followed by standing still at 4° C. for 15 minutes. For gene transfer, electroporation was performed at a voltage of 280 V and a capacitance of 950 μF. After completion of gene transfer, the cells were suspended in a DMEM medium ((+) 10% FCS) containing recombinant human G-CSF (rhG-CSF, 20 ng/mL) and puromycin (2 μg/mL), whereby a human G-CSF dependent cell strain was created.
For studying the cell multiplication ability with respect to rhG-CSF, the following procedure was carried out. Briefly, cells in which the human G-CSF receptor gene had been inserted (BAF/hGCSFR) were collected, and washed with PBS(−). Subsequently, the cells were suspended in DMEM medium, and the medium containing the cells was prepared to the wells of a 96-well plate (5×10^4 cells/well). Then, rhG-CSF was added to the wells (0, 0.006, 0.025, 0.1, 0.4 ng/mL), and the cells in the wells were cultured under 5% CO2 for 48 hours at 37° C. After completion of incubation, a solution of WST-1/1-methoxy PMS was added to the wells (final concentration: 5 mM), and the cells in the wells were cultured in a CO2 incubator for 2 hours. After completion of incubation, the absorbance of the cultured solution was measured at a wavelength of 450 nm. The results are shown in FIG. 1 (mean±standard error, n=5).
A solution prepared by diluting a compound with DMEM was added to the wells of a 96-well microplate (10 μL/well). The human G-CSF-dependent cell strain was added to the wells (5.0×10^4 cells/100 μL), followed by incubation for 48 hours at 37° C. After completion of incubation, a solution of WST-1/1-methoxy PMS (final concentration: 5 mM) was added to the wells, followed by incubation in a CO2 incubator for 2 hours. After completion of incubation, the absorbance was measured at a wavelength of 450 nm. The results are shown in FIG. 2 (mean±standard error, n=5).
Using the test data obtained from Test Example 1, human-G-CSF equivalent concentrations (ng/mL) corresponding to respective compound concentrations employed in Test Example 2 were calculated. The results are shown in Table 1 (mean±standard error, n=5).

SMILES | human-G-CSF equivalent concentration (compound conc. 10^−6 M) | human-G-CSF equivalent concentration (compound conc. 10^−7 M) | human-G-CSF equivalent concentration (compound conc. 10^−8 M)
CCCCCCCCOc1ccc(Cl)cc1C(C)(O)Cn1ccnc1 (stereo not drawn) [Compound (1-3), 2-(5-Chloro-2-(n-octyloxy)phenyl)-1-(1H-1-imidazolyl)-2-propanol] | 0.057 ± 0.0005 ng/mL | 0.057 ± 0.0005 ng/mL | 0.018 ± 0.0001 ng/mL
CCCCCCCCCOc1ccc(Cl)cc1C(C)(O)Cn1ccnc1 (stereo not drawn) [Compound (1-1), 2-(5-Chloro-2-(n-nonyloxy)phenyl)-1-(1H-1-imidazolyl)-2-propanol] | 0.131 ± 0.001 ng/mL | 0.032 ± 0.0003 ng/mL | 0.015 ± 0.0001 ng/mL
CCCCCCCOc1ccc(Cl)cc1C(C)(O)Cn1ccnc1 (stereo not drawn) [Compound (1-2), 2-(5-Chloro-2-(n-heptyloxy)phenyl)-1-(1H-1-imidazolyl)-2-propanol] | 0.049 ± 0.0004 ng/mL | 0.037 ± 0.0003 ng/mL | 0.013 ± 0.0001 ng/mL
